The values that follow come from PMC4945996 (Journal of the American Chemical Society, 2016).

Several values for one entry are separate records, joined by “and”; a condition that tells them apart may be missing. Equal values may be shown once. Read-outs that look alike come from different tables or passages of the source.

Assay [1] concerns the target T1, human MIF (Homo sapiens, UniProt P14174).
T1 sequence (P14174 2-115 limits assumed): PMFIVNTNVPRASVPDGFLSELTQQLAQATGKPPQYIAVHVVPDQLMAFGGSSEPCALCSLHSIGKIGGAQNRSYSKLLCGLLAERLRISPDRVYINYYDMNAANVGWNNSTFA
Nature of the assay: HPP tautomerase assay. It counts as biochemical. The note with it: for Ki: tautomerase inhibition, HPP substrate, pH 6–6.1.

The target of assay [2] is T1, human MIF. Nature of the assay: Competitive fluorescence polarization. It counts as binding. The note with it: for Kd: 0.004 μM tracer B, […] MIF, pH 7.4, Kd from IC50 via eq 1. On the technique in general: Fluorescence polarisation rises when a labelled molecule tumbles more slowly, as on binding a larger partner.
Assay [3] addresses MIF. As to conditions: DOPA assay; cited from earlier work.
Assay [4] has as its system MIF. As to conditions: cited from earlier work.
In assay [5] the target is MIF binding to CD74. As to conditions: blocking binding of MIF to CD74; cited from earlier work.
For assay [6], the system named is MIF. The note with it: covalent inhibitor: result is time-dependent; cited from earlier work.

As to `O=C1Oc2cc(O)ccc2CN1C1CCCCC1` [NVS-1], the Ki (as a rule, a measure of affinity in units of concentration, obtained from inhibition or displacement) in assay [1] came out at 569 nM. Moreover, in assay [2], the “fold weaker binding (cyclohexyl analogue vs NVS-2)” value is given as “ca. 10 fold”. Also, in assay [2] (Kd), the Kd (usually the equilibrium constant for the complex coming apart) turned out to be 456 nM.

The molecule `O=C(O)c1ccc(Oc2cn(-c3ccc(O)c(F)c3)nn2)cc1` [5b] had an inhibition constant Ki in assay [1] of 1700 nM.

Take `O=c1c(-c2ccc(O)c(O)c2)coc2cc(O)ccc12` [Orita-13]: in assay [3], the inhibition constant Ki was 38 nM.

In turn, `O=C1Oc2cc(O)ccc2CN1c1ccc(O)cc1` [NVS-6] showed a Ki in assay [1] of 185 nM. The molecule further returned a Kd in assay [2] (Kd) of 159 nM.

For `COc1ccc(N2Cc3ccc(O)cc3OC2=O)cc1` [NVS-2], the inhibition constant (Ki) in assay [1] is ~30 nM and 30 nM. In assay [1] (from Ki values), the “fold more potent than (R)-ISO-1” value is listed as “roughly 1000 fold”. The “fold stronger binding than NVS-6” value in assay [2] came to 3 fold. Further, the ligand efficiency in assay [2] ((−2.3RT/HAC) log Kd) is recorded as 0.50. Further, the half-inhibitory concentration (IC50) in assay [4] (HPP tautomerase assay) and in assay [4] (previously reported) was 20 nM each time.

In assay [1], `COc1ccc(Oc2cn(-c3ccc(O)c(F)c3)nn2)cc1` [5a] returned a Ki of 1900 nM.

Take `COc1cc(-c2ccc(N=Nc3ccc4c(S(=O)(=O)O)cc(S(=O)(=O)O)c(N)c4c3O)c(OC)c2)ccc1N=Nc1ccc2c(S(=O)(=O)O)cc(S(=O)(=O)O)c(N)c2c1O` [PSB]: the 50% inhibitory concentration (IC50) (in general, the concentration that gives 50% inhibition) in assay [5] was 810 nM.

In assay [2], `Ic1cc(-c2ccccc2)ncn1` [4-IPP] showed a Kd of 446 nM. The “time dependence of FP results” value in assay [2] (FP monitored for 1 h after the 20 min incubation) was “time dependent”. Moreover, the IC50 in assay [6] is 4500 nM.
